Reference: ChEMBL document CHEMBL2406981, “Novel pyrazoline amidoxime and their 1,2,4-oxadiazole analogues: synthesis and pharmacological screening” (Bioorg Med Chem Lett, 2013)
In brackets after ≈: the same amount, converted by molar mass.

How the values were obtained:
Format in all cases: functional
[1] = Antiinflammatory activity against heat-induced albumin denaturation at […] preincubated for 15 mins before heat induction by UV-vis spectrophotometer analysis
Aspergillus flavus [2] = assay: Antimicrobial activity against Aspergillus flavus MTCC 873
Aspergillus niger [3] = assay: Antimicrobial activity against Aspergillus niger MTCC 281
Shigella flexneri [4] = assay: Antimicrobial activity against Shigella flexneri MTCC 1457
Escherichia coli [5] = assay: Antimicrobial activity against Escherichia coli MTCC 724
Klebsiella pneumoniae [6] = assay: Antimicrobial activity against Klebsiella pneumoniae MTCC 3384
Staphylococcus aureus [7] = assay: Antimicrobial activity against Staphylococcus aureus MTCC 96
Bacillus cereus [8] = assay: Antimicrobial activity against Bacillus cereus MTCC 8372
Aspergillus niger [9] = assay: Antimicrobial activity against Aspergillus niger MTCC 281 at 50 ug/ml after 24 hrs by agar disc diffusion method; settings: MTCC 281, 24 h, read-out: DIZ
Aspergillus niger [10] = assay: Antimicrobial activity against Aspergillus niger MTCC 281 at 100 ug/ml after 24 hrs by agar disc diffusion method; settings: MTCC 281, 24 h, read-out: DIZ
Aspergillus flavus [11] = assay: Antimicrobial activity against Aspergillus flavus MTCC 873 at 100 ug/ml after 24 hrs by agar disc diffusion method; settings: MTCC 873, 24 h, read-out: DIZ
Aspergillus flavus [12] = assay: Antimicrobial activity against Aspergillus flavus MTCC 873 at 50 ug/ml after 24 hrs by agar disc diffusion method; settings: MTCC 873, 24 h, read-out: DIZ
Shigella flexneri [13] = assay: Antimicrobial activity against Shigella flexneri MTCC 1457 at 100 ug/ml after 24 hrs by agar disc diffusion method; settings: MTCC 1457, 24 h, read-out: DIZ
Shigella flexneri [14] = assay: Antimicrobial activity against Shigella flexneri MTCC 1457 at 50 ug/ml after 24 hrs by agar disc diffusion method; settings: MTCC 1457, 24 h, read-out: DIZ
Klebsiella pneumoniae [15] = assay: Antimicrobial activity against Klebsiella pneumoniae MTCC 3384 at 100 ug/ml after 24 hrs by agar disc diffusion method; settings: MTCC 3384, 24 h, read-out: DIZ
Klebsiella pneumoniae [16] = assay: Antimicrobial activity against Klebsiella pneumoniae MTCC 3384 at 50 ug/ml after 24 hrs by agar disc diffusion method; settings: MTCC 3384, 24 h, read-out: DIZ
Escherichia coli [17] = assay: Antimicrobial activity against Escherichia coli MTCC 724 at 100 ug/ml after 24 hrs by agar disc diffusion method; settings: MTCC 724, 24 h, read-out: DIZ
Escherichia coli [18] = assay: Antimicrobial activity against Escherichia coli MTCC 724 at 50 ug/ml after 24 hrs by agar disc diffusion method; settings: MTCC 724, 24 h, read-out: DIZ
Staphylococcus aureus [19] = assay: Antimicrobial activity against Staphylococcus aureus MTCC 96 at 100 ug/ml after 24 hrs by agar disc diffusion method; settings: MTCC 96, 24 h, read-out: DIZ
Staphylococcus aureus [20] = assay: Antimicrobial activity against Staphylococcus aureus MTCC 96 at 50 ug/ml after 24 hrs by agar disc diffusion method; settings: MTCC 96, 24 h, read-out: DIZ
Bacillus cereus [21] = assay: Antimicrobial activity against Bacillus cereus MTCC 8372 at 100 ug/ml after 24 hrs by agar disc diffusion method; settings: MTCC 8372, 24 h, read-out: DIZ
Bacillus cereus [22] = assay: Antimicrobial activity against Bacillus cereus MTCC 8372 at 50 ug/ml after 24 hrs by agar disc diffusion method; settings: MTCC 8372, 24 h, read-out: DIZ
[23] = Antioxidant activity against ferric chloride-induced lipid peroxidation using egg lecithin at 50 ug/ml after 1 hr
[24] = Antioxidant activity against ferric chloride-induced lipid peroxidation using egg lecithin at 100 ug/ml after 1 hr
[25] = Antioxidant activity against ferric chloride-induced lipid peroxidation using egg lecithin at 10 ug/ml after 1 hr
[26] = Antioxidant activity assessed as reducing power of ferric ion at 50 ug/ml after 20 mins; set-up: scale not given: the % may be the effect or the level left
[27] = Antioxidant activity assessed as reducing power of ferric ion at 100 ug/ml after 20 mins; set-up: scale not given: the % may be the effect or the level left
[28] = Antioxidant activity assessed as reducing power of ferric ion at 10 ug/ml after 20 mins; set-up: scale not given: the % may be the effect or the level left
[29] = tested on: Radical scavenging activity; assay: Antioxidant activity assessed as DPPH free radical scavenging activity at 50 ug/ml after 20 mins
[30] = tested on: Radical scavenging activity; assay: Antioxidant activity assessed as DPPH free radical scavenging activity at 100 ug/ml after 20 mins
[31] = tested on: Radical scavenging activity; assay: Antioxidant activity assessed as DPPH free radical scavenging activity at 10 ug/ml after 20 mins

SMILES	inhibition [1]	MIC (Aspergillus flavus [2])	MIC (Aspergillus niger [3])	MIC (Shigella flexneri [4])	MIC (Escherichia coli [5])	MIC (Klebsiella pneumoniae [6])	MIC (Staphylococcus aureus [7])	MIC (Bacillus cereus [8])	zone of inhibition at 50 µg/mL (Aspergillus niger [9])	zone of inhibition at 100 µg/mL (Aspergillus niger [10])	zone of inhibition at 100 µg/mL (Aspergillus flavus [11])	zone of inhibition at 50 µg/mL (Aspergillus flavus [12])	zone of inhibition at 100 µg/mL (Shigella flexneri [13])	zone of inhibition at 50 µg/mL (Shigella flexneri [14])	zone of inhibition at 100 µg/mL (Klebsiella pneumoniae [15])	zone of inhibition at 50 µg/mL (Klebsiella pneumoniae [16])	zone of inhibition at 100 µg/mL (Escherichia coli [17])	zone of inhibition at 50 µg/mL (Escherichia coli [18])	zone of inhibition at 100 µg/mL (Staphylococcus aureus [19])	zone of inhibition at 50 µg/mL (Staphylococcus aureus [20])	other results
COc1cc(-c2nc(C3CC(c4ccc(O)cc4)=NN3c3ccccc3)no2)cc(OC)c1OC (centres undefined)	59.3%	10 µg/mL (≈ 21.2 µM)	5 µg/mL (≈ 10.6 µM)	10 µg/mL (≈ 21.2 µM)	15 µg/mL (≈ 31.7 µM)	10 µg/mL (≈ 21.2 µM)	15 µg/mL (≈ 31.7 µM)	10 µg/mL (≈ 21.2 µM)	18 mm	30 mm	26 mm	14 mm	22 mm	14 mm	18 mm	12 mm	16 mm	10 mm	18 mm	10 mm	zone of inhibition at 100 µg/mL (Bacillus cereus [21]): 18 mm; zone of inhibition at 50 µg/mL (Bacillus cereus [22]): 12 mm; inhibition [23]: 62%; inhibition [24]: 87%; inhibition [25]: 42%; Activity [26]: 26%; Activity [27]: 76%; Activity [28]: 16%; Activity [29]: 63%; Activity [30]: 91%; Activity [31]: 34%
Oc1ccc(C2=NN(c3ccccc3)C(c3noc(-c4ccc(Cl)cc4)n3)C2)cc1 (centres undefined)	74.6%	15 µg/mL (≈ 36 µM)	10 µg/mL (≈ 24 µM)	20 µg/mL (≈ 48 µM)	20 µg/mL (≈ 48 µM)	15 µg/mL (≈ 36 µM)	25 µg/mL (≈ 60 µM)	20 µg/mL (≈ 48 µM)	12 mm	18 mm	18 mm	10 mm	18 mm	8 mm	12 mm	10 mm	14 mm	8 mm	10 mm	6 mm	zone of inhibition at 100 µg/mL (Bacillus cereus [21]): 10 mm; zone of inhibition at 50 µg/mL (Bacillus cereus [22]): 8 mm; inhibition [23]: 61%; inhibition [24]: 80%; inhibition [25]: 40%; Activity [26]: 26%; Activity [27]: 76%; Activity [28]: 14%; Activity [29]: 51%; Activity [30]: 70%; Activity [31]: 30%
COc1ccc(C2=NN(c3ccccc3)C(c3noc(-c4ccc(Cl)cc4)n3)C2)cc1 (centres undefined)	57.5%	10 µg/mL (≈ 23.2 µM)	10 µg/mL (≈ 23.2 µM)	25 µg/mL (≈ 58 µM)	25 µg/mL (≈ 58 µM)	25 µg/mL (≈ 58 µM)	30 µg/mL (≈ 69.6 µM)	40 µg/mL (≈ 92.8 µM)	12 mm	20 mm	18 mm	12 mm	8 mm	8 mm	10 mm	7 mm	10 mm	8 mm	12 mm	5 mm	zone of inhibition at 100 µg/mL (Bacillus cereus [21]): 13 mm; zone of inhibition at 50 µg/mL (Bacillus cereus [22]): 4 mm; inhibition [23]: 48%; inhibition [24]: 70%; inhibition [25]: 34%; Activity [26]: 23%; Activity [27]: 58%; Activity [28]: 12%; Activity [29]: 52%; Activity [30]: 72%; Activity [31]: 22%
Clc1ccc(C2=NN(c3ccccc3)C(c3noc(-c4ccc(Cl)cc4)n3)C2)cc1 (centres undefined)	78.4%	10 µg/mL (≈ 23 µM)	5 µg/mL (≈ 11.5 µM)	20 µg/mL (≈ 45.9 µM)	20 µg/mL (≈ 45.9 µM)	25 µg/mL (≈ 57.4 µM)	20 µg/mL (≈ 45.9 µM)	25 µg/mL (≈ 57.4 µM)	20 mm	26 mm	25 mm	15 mm	12 mm	8 mm	10 mm	6 mm	10 mm	8 mm	12 mm	6 mm	zone of inhibition at 100 µg/mL (Bacillus cereus [21]): 12 mm; zone of inhibition at 50 µg/mL (Bacillus cereus [22]): 6 mm; inhibition [23]: 58%; inhibition [24]: 83%; inhibition [25]: 34%; Activity [26]: 32%; Activity [27]: 86%; Activity [28]: 16%; Activity [29]: 53%; Activity [30]: 82%; Activity [31]: 29%
O=C(O)Cc1ccccc1Nc1c(Cl)cccc1Cl	84.4%																				
COc1ccc(-c2nc(C3CC(c4ccccc4)=NN3c3ccccc3)no2)cc1OC (centres undefined)	27.1%	10 µg/mL (≈ 23.4 µM)	10 µg/mL (≈ 23.4 µM)	25 µg/mL (≈ 58.6 µM)	20 µg/mL (≈ 46.9 µM)	20 µg/mL (≈ 46.9 µM)	20 µg/mL (≈ 46.9 µM)	20 µg/mL (≈ 46.9 µM)	12 mm	18 mm	14 mm	10 mm	10 mm	7 mm	14 mm	8 mm	12 mm	8 mm	12 mm	8 mm	zone of inhibition at 100 µg/mL (Bacillus cereus [21]): 14 mm; zone of inhibition at 50 µg/mL (Bacillus cereus [22]): 8 mm; inhibition [23]: 52%; inhibition [24]: 71%; inhibition [25]: 14%; Activity [26]: 29%; Activity [27]: 68%; Activity [28]: 12%; Activity [29]: 56%; Activity [30]: 66%; Activity [31]: 26%
c1ccc(C2=NN(c3ccccc3)C(c3noc(-c4ccccc4)n3)C2)cc1 (centres undefined)	23.3%	15 µg/mL (≈ 40.9 µM)	15 µg/mL (≈ 40.9 µM)	20 µg/mL (≈ 54.6 µM)	50 µg/mL (≈ 136 µM)	30 µg/mL (≈ 81.9 µM)	50 µg/mL (≈ 136 µM)	30 µg/mL (≈ 81.9 µM)	10 mm	14 mm	12 mm	9 mm	8 mm	4 mm	6 mm	4 mm	8 mm	3 mm	8 mm	2 mm	zone of inhibition at 100 µg/mL (Bacillus cereus [21]): 8 mm; zone of inhibition at 50 µg/mL (Bacillus cereus [22]): 4 mm; inhibition [23]: 40%; inhibition [24]: 57%; inhibition [25]: 21%; Activity [26]: 16%; Activity [27]: 58%; Activity [28]: 6%; Activity [29]: 28%; Activity [30]: 39%; Activity [31]: 18%
O=C1O[C@H]([C@@H](O)CO)C(O)=C1O																					Activity [26]: 32%; Activity [27]: 82%; Activity [28]: 14%; Activity [29]: 57%; Activity [30]: 94%; Activity [31]: 32%
OC(Cn1cncn1)(Cn1cncn1)c1ccc(F)cc1F [FLUCONAZOLE]		5 µg/mL (≈ 16.3 µM)	5 µg/mL (≈ 16.3 µM)						20 mm	30 mm	28 mm	16 mm									
O=C(N[C@H](CO)[C@H](O)c1ccc([N+](=O)[O-])cc1)C(Cl)Cl [CHLORAMPHENICOL]				10 µg/mL (≈ 30.9 µM)	10 µg/mL (≈ 30.9 µM)	10 µg/mL (≈ 30.9 µM)	10 µg/mL (≈ 30.9 µM)	10 µg/mL (≈ 30.9 µM)					24 mm	10 mm	20 mm	12 mm	18 mm	10 mm	16 mm	9 mm	zone of inhibition at 100 µg/mL (Bacillus cereus [21]): 18 mm; zone of inhibition at 50 µg/mL (Bacillus cereus [22]): 10 mm
